Assay results published in patent publication US20260198493A1, “HYDRAZIDE COMPOUND AND AGRICULTURAL/HORTICULTURAL FUNGICIDE” (Nippon Soda Co., Ltd., priority 2022, published 2026).

Experiments:
[1] = test system: Botrytis cinerea; test: Control test of cucumber gray mold (sprayed young cucumber seedlings); assay type: in vivo; details: 96 h, four days after inoculation; for pest or weed control at 125 ppm: 125 ppm by mass spray; for pest or weed control at 25 ppm: 25 ppm by mass spray
Procedure: Then, the drug liquid was sprayed onto young cucumber seedlings cultivated in a nursery pot (variety “Jihai”-based, cotyledon stage), and then air-dried. […] They were left still in a moist room at 20° C. Four days after inoculation, leaves of the young cucumber seedlings were visually observed, and the control value was calculated from the lesion area ratio in accordance with the following equation. [formula]

[2] = test system: Glomerella cingulata; test: Fungicidal effect test against fungi causing grape ripe rot disease; details: Colletotrichum gloeosporioides, 72 h, read-out: growth inhibition ratio
[3] = test system: Botrytis cinerea; assay type: cell-based; details: 120 h, 25 ppm by volume, Vogel medium, 20° C., five days, dark, read-out: growth inhibition ratio
[4] = test system: Colletotrichum acutatum; test: Fungicidal effect test against fungi causing apple anthracnose; details: 96 h, read-out: growth inhibition ratio
[5] = test system: Erysiphe graminis f.sp.tritici; test: Control test of wheat powdery mildew disease (sprayed young wheat seedlings); assay type: in vivo; details: Blumeria graminis, 144 h, 125 ppm by mass spray, six days after inoculation
From the text: [formula] […] Then, the drug liquid was sprayed onto young wheat seedlings cultivated in a nursery pot (variety “Chihoku”, one-to two-leaf stage), and then air-dried. Thereafter, conidiospores of fungi causing wheat powdery mildew disease (Erysiphe graminis f.sp.tritici) were sprinkled on the young wheat seedlings to inoculate them (treated area). As a control, the conidiospores of fungi causing wheat powdery mildew disease (Erysiphe graminis f.sp.tritici) were sprinkled on young wheat seedlings unsprayed with the drug liquid (untreated area). They were left still in a greenhouse at 20° C. Six days after inoculation, leaves of young wheat seedlings were visually observed, and the lesion area ratio was determined to calculate the control value in a similar manner to the previous test.

COC(=O)N(Cc1sc(C)cc1C)NC(=O)c1cc(C)nnc1Oc1cccc(C2CC2)c1F [b-122, Methyl 2-(3-(3-cyclopropyl-2-fluorophenoxy)-6-methylpyridazine-4-carbonyl)-1-((3,5-dimethylthiophen-2-yl)methyl)hydrazine-1-carboxylate]
≥ 75%: pest or weed control at 125 ppm [1] | inhibition of growth at 25 ppm [2] | inhibition of growth at 25 ppm [3] | inhibition of growth at 25 ppm [4]

CCc1ccc(Oc2nnc(C)cc2C(=O)NN(Cc2ccc(C)cc2C)C(=O)OC)cc1 [b-51]
≥ 75%: pest or weed control at 125 ppm [5] | inhibition of growth at 25 ppm [2] | inhibition of growth at 25 ppm [3] | inhibition of growth at 25 ppm [4]

COC(=O)N(Cc1ccc(OC)cc1C)NC(=O)c1nc(C)nnc1Oc1cccc(C2CC2)c1F [b-130]
≥ 75%: pest or weed control at 25 ppm [1] | pest or weed control at 125 ppm [1] | inhibition of growth at 25 ppm [2] | inhibition of growth at 25 ppm [3] | inhibition of growth at 25 ppm [4]

Cc1ccc(CN(NC(=O)c2cc(C)nnc2Oc2cccc(C3CC3)c2F)C(=O)OCC(F)F)c(C)c1 [b-197]
≥ 75%: pest or weed control at 25 ppm [1] | pest or weed control at 125 ppm [1] | inhibition of growth at 25 ppm [2] | inhibition of growth at 25 ppm [3] | inhibition of growth at 25 ppm [4]

COC(=O)N(Cc1ccc(C)cc1C)NC(=O)c1c(Oc2cccc(C3CC3)c2)cnn(C(C)C)c1=O [b-224]
≥ 75%: pest or weed control at 125 ppm [1] | inhibition of growth at 25 ppm [2] | inhibition of growth at 25 ppm [3] | inhibition of growth at 25 ppm [4]

CC(=O)N(Cc1ccc(C)cc1C)NC(=O)c1c(Oc2cccc(C3CC3)c2F)nnc(Cl)c1C [b-10]
≥ 75%: pest or weed control at 125 ppm [1] | inhibition of growth at 25 ppm [2] | inhibition of growth at 25 ppm [3] | inhibition of growth at 25 ppm [4]

COC(=O)N(Cc1ccc(C)cc1C)NC(=S)c1cc(C)nnc1Oc1cccc(C2CC2)c1F [b-59, Methyl 2-(3-(3-cyclopropyl-2-fluorophenoxy)-6-methylpyridazine-4-carbonothioyl)-1-(2,4-dimethylbenzyl)hydrazine-1-carboxylate]
≥ 75%: pest or weed control at 125 ppm [1] | inhibition of growth at 25 ppm [2] | inhibition of growth at 25 ppm [3] | inhibition of growth at 25 ppm [4]

COC(=O)N(Cc1ccc([N+](=O)[O-])cc1C)NC(=O)c1cc(C)nnc1Oc1cccc(C2CC2)c1F [b-162]
≥ 75%: pest or weed control at 125 ppm [5] | inhibition of growth at 25 ppm [2] | inhibition of growth at 25 ppm [3] | inhibition of growth at 25 ppm [4]

COC(=O)N(Cc1ccc(C)cc1C)NC(=O)c1cc(N(C)C)ncc1Oc1cccc(C2CC2)c1F [b-125]
≥ 75%: pest or weed control at 125 ppm [5] | inhibition of growth at 25 ppm [2] | inhibition of growth at 25 ppm [3] | inhibition of growth at 25 ppm [4]

COC(=O)N(NC(=O)c1cc(C)nnc1Oc1cccc(C2CC2)c1F)C(C)c1ccc(C)cc1C (stereo not drawn) [b-72]
≥ 75%: pest or weed control at 25 ppm [1] | inhibition of growth at 25 ppm [2] | inhibition of growth at 25 ppm [3] | inhibition of growth at 25 ppm [4]

COC(=O)N(Cc1ccc(Cl)nc1Cl)NC(=O)c1cc(C)nnc1Oc1cccc(C2CC2)c1F [b-93, Methyl 2-(3-(3-cyclopropyl-2-fluorophenoxy)-6-methylpyridazine-4-carbonyl)-1-((2,6-dichloropyridin-3-yl)methyl)hydrazine-1-carboxylate]
≥ 75%: pest or weed control at 125 ppm [5] | inhibition of growth at 25 ppm [2] | inhibition of growth at 25 ppm [3] | inhibition of growth at 25 ppm [4]

CC(=O)N(Cc1ccc(C)cc1C)NC(=O)c1nc(C)ncc1Oc1cccc(C2CC2)c1F [b-64]
≥ 75%: pest or weed control at 125 ppm [1] | inhibition of growth at 25 ppm [2] | inhibition of growth at 25 ppm [3] | inhibition of growth at 25 ppm [4]

COC(=O)N(Cc1ccc(OC)cc1C)NC(=O)c1nc(C)ncc1Oc1cccc(C2CC2)c1F [b-105]
≥ 75%: pest or weed control at 25 ppm [1] | inhibition of growth at 25 ppm [2] | inhibition of growth at 25 ppm [3] | inhibition of growth at 25 ppm [4]

COC(=O)N(Cc1ccc(C)nc1C)NC(=O)c1cc(C)nnc1Oc1cccc(C2CC2)c1F [b-60]
≥ 75%: pest or weed control at 125 ppm [5] | inhibition of growth at 25 ppm [2] | inhibition of growth at 25 ppm [4]
